In ChEMBL document CHEMBL3882738, “Dimethylarginine Dimethylaminohydrolase inhibitors and methods of use thereof” (2014):
The source made the active and inactive calls. The calls are words filed in the database; no cut-off is given here.

Columns and labels:
[1] = target: T1, N(G),N(G)-dimethylarginine dimethylaminohydrolase 1 (Homo sapiens, UniProt O94760); experiment: Inhibition of recombinant human DDAH1 expressed in Escherichia coli BL21 Star (DE3) using ADMA as substrate assessed as decrease in citrulline production after 4 hrs by colorimetric method
T1 sequence (O94760 whole entry): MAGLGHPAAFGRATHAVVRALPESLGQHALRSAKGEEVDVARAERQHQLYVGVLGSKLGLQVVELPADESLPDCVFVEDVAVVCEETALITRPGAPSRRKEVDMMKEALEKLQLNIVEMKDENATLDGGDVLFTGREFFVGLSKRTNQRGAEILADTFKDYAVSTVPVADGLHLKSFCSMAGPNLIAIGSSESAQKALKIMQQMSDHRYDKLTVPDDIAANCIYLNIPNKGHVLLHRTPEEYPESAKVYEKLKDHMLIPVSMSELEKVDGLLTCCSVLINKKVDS

[2] = target: T1, N(G),N(G)-dimethylarginine dimethylaminohydrolase 1; experiment: Inhibition of recombinant human DDAH1 expressed in Escherichia coli BL21 Star (DE3) using ADMA as substrate assessed as decrease in citrulline production at 50 uM after 4 hrs by colorimetric method
[3] = target: T1, N(G),N(G)-dimethylarginine dimethylaminohydrolase 1; experiment: Inhibition of recombinant human DDAH1 expressed in Escherichia coli BL21 Star (DE3) using ADMA as substrate assessed as decrease in citrulline production at 50 uM preincubated with protein followed by substrate addition by colorimetric method
[4] = target: T1, N(G),N(G)-dimethylarginine dimethylaminohydrolase 1; experiment: Inhibition of DDAH in human A549 cells assessed as decrease in serum-stimulated cell proliferation at 20 uM preincubated for 2 hrs followed by fetal bovine serum addition measured 24 hrs post compound treatment by BrdU incorporation assay; assay type: cell-based
[5] = target: T1, N(G),N(G)-dimethylarginine dimethylaminohydrolase 1; experiment: Inhibition of recombinant human DDAH1 expressed in Escherichia coli BL21 Star (DE3) using SMTC as substrate assessed as decrease in L-citrulline and methanethiol production at 50 uM by CPM-based fluorimetric assay
[6] = target: T1, N(G),N(G)-dimethylarginine dimethylaminohydrolase 1; experiment: Inhibition of DDAH in lung fibroblasts isolated from late stage idiopathic pulmonary fibrosis patient assessed as reduction of TGF-beta-induced acid-soluble collagen levels at 20 uM after 24 hrs by sircol collagen assay
[7] = target: T1, N(G),N(G)-dimethylarginine dimethylaminohydrolase 1; experiment: Inhibition of recombinant human DDAH1 expressed in Escherichia coli BL21 Star (DE3) using SMTC as substrate assessed as decrease in L-citrulline and methanethiol production by CPM-based fluorimetric assay
[8] = target: T1, N(G),N(G)-dimethylarginine dimethylaminohydrolase 1; experiment: Inhibition of DDAH in bronchial epithelial cells isolated from chronic obstructive pulmonary disease patient assessed as downregulation of TRPV1 gene expression at 5 to 50 uM after 24 hrs relative to vehicle-treated control; assay type: cell-based; conditions: Epithelial cell
[9] = target: T1, N(G),N(G)-dimethylarginine dimethylaminohydrolase 1; experiment: Inhibition of DDAH in fibroblasts isolated from idiopathic pulmonary fibrosis patient assessed as downregulation of ITGA5 gene expression at 5 to 50 uM relative to vehicle-treated control
[10] = target: T1, N(G),N(G)-dimethylarginine dimethylaminohydrolase 1; experiment: Inhibition of DDAH in fibroblasts isolated from idiopathic pulmonary fibrosis patient assessed as downregulation of BMPR2 gene expression at 5 to 50 uM relative to vehicle-treated control
[11] = target: T1, N(G),N(G)-dimethylarginine dimethylaminohydrolase 1; experiment: Inhibition of DDAH in fibroblasts isolated from idiopathic pulmonary fibrosis patient assessed as downregulation of SMAD6 gene expression at 5 to 50 uM relative to vehicle-treated control
[12] = target: T1, N(G),N(G)-dimethylarginine dimethylaminohydrolase 1; experiment: Inhibition of DDAH in fibroblasts isolated from idiopathic pulmonary fibrosis patient assessed as downregulation of ITGB3 gene expression at 5 to 50 uM relative to vehicle-treated control
[13] = target: T1, N(G),N(G)-dimethylarginine dimethylaminohydrolase 1; experiment: Inhibition of DDAH in HMEC1 assessed as increase in intracellular ADMA levels at 20 uM after 24 hrs by ELISA relative to vehicle-treated control; assay type: cell-based
[14] = target: T1, N(G),N(G)-dimethylarginine dimethylaminohydrolase 1; experiment: Inhibition of DDAH in fibroblasts isolated from idiopathic pulmonary fibrosis patient assessed as downregulation of MMP8 gene expression at 5 to 50 uM relative to vehicle-treated control
[15] = target: T1, N(G),N(G)-dimethylarginine dimethylaminohydrolase 1; experiment: Inhibition of DDAH in fibroblasts isolated from idiopathic pulmonary fibrosis patient assessed as downregulation of ITGB6 gene expression at 5 to 50 uM relative to vehicle-treated control
[16] = target: T1, N(G),N(G)-dimethylarginine dimethylaminohydrolase 1; experiment: Inhibition of DDAH in fibroblasts isolated from idiopathic pulmonary fibrosis patient assessed as downregulation of ITGB8 gene expression at 5 to 50 uM relative to vehicle-treated control
[17] = target: T1, N(G),N(G)-dimethylarginine dimethylaminohydrolase 1; experiment: Inhibition of DDAH in fibroblasts isolated from late idiopathic pulmonary fibrosis patient assessed as upregulation of HO1 gene expression at 50 uM relative to control
[18] = target: T1, N(G),N(G)-dimethylarginine dimethylaminohydrolase 1; experiment: Inhibition of DDAH in fibroblasts isolated from idiopathic pulmonary fibrosis patient assessed as downregulation of ITGB1 gene expression at 5 to 50 uM relative to vehicle-treated control
[19] = target: T1, N(G),N(G)-dimethylarginine dimethylaminohydrolase 1; experiment: Inhibition of DDAH in fibroblasts isolated from chronic obstructive pulmonary disease patient assessed as upregulation of HO1 gene expression at 5 to 50 uM after 24 hrs relative to vehicle-treated control
[20] = target: T1, N(G),N(G)-dimethylarginine dimethylaminohydrolase 1; experiment: Inhibition of DDAH in fibroblasts isolated from idiopathic pulmonary fibrosis patient assessed as downregulation of BMP4 gene expression at 5 to 50 uM relative to vehicle-treated control
[21] = target: T1, N(G),N(G)-dimethylarginine dimethylaminohydrolase 1; experiment: Inhibition of DDAH in fibroblasts isolated from idiopathic pulmonary fibrosis patient assessed as downregulation of […] gene expression at 5 to 50 uM relative to vehicle-treated control
[22] = target: T1, N(G),N(G)-dimethylarginine dimethylaminohydrolase 1; experiment: Inhibition of DDAH in fibroblasts isolated from idiopathic pulmonary fibrosis patient assessed as downregulation of TGFB1 gene expression at 5 to 50 uM relative to vehicle-treated control
[23] = target: T1, N(G),N(G)-dimethylarginine dimethylaminohydrolase 1; experiment: Inhibition of DDAH in fibroblasts isolated from idiopathic pulmonary fibrosis patient assessed as downregulation of TGFBR1 gene expression at 5 to 50 uM relative to vehicle-treated control
[24] = target: T1, N(G),N(G)-dimethylarginine dimethylaminohydrolase 1; experiment: Inhibition of DDAH in fibroblasts isolated from idiopathic pulmonary fibrosis patient assessed as downregulation of BMPR1B gene expression at 5 to 50 uM relative to vehicle-treated control
[25] = target: T1, N(G),N(G)-dimethylarginine dimethylaminohydrolase 1; experiment: Inhibition of DDAH in bronchial epithelial cells isolated from chronic obstructive pulmonary disease patient assessed as upregulation of HO1 gene expression at 5 to 50 uM after 24 hrs relative to vehicle-treated control; assay type: cell-based; conditions: Epithelial cell
[26] = target: T1, N(G),N(G)-dimethylarginine dimethylaminohydrolase 1; experiment: Inhibition of DDAH in fibroblasts isolated from idiopathic pulmonary fibrosis patient assessed as downregulation of ITGB5 gene expression at 5 to 50 uM relative to vehicle-treated control
[27] = target: T1, N(G),N(G)-dimethylarginine dimethylaminohydrolase 1; experiment: Inhibition of DDAH in bronchial epithelial cells isolated from chronic obstructive pulmonary disease patient assessed as downregulation of TNF-alpha gene expression at 5 to 50 uM after 24 hrs relative to vehicle-treated control; assay type: cell-based; conditions: Epithelial cell
[28] = target: T1, N(G),N(G)-dimethylarginine dimethylaminohydrolase 1; experiment: Inhibition of DDAH in fibroblasts isolated from early idiopathic pulmonary fibrosis patient assessed as upregulation of HO1 gene expression at 50 uM relative to control
[29] = target: T1, N(G),N(G)-dimethylarginine dimethylaminohydrolase 1; experiment: Inhibition of DDAH in fibroblasts isolated from idiopathic pulmonary fibrosis patient assessed as downregulation of BMP2 gene expression at 5 to 50 uM relative to vehicle-treated control
[30] = target: T1, N(G),N(G)-dimethylarginine dimethylaminohydrolase 1; experiment: Inhibition of DDAH in fibroblasts isolated from idiopathic pulmonary fibrosis patient assessed as downregulation of TGFBR2 gene expression at 5 to 50 uM relative to vehicle-treated control
[31] = target: N(G),N(G)-dimethylarginine dimethylaminohydrolase 1 (Mus musculus) (UniProt Q9CWS0); experiment: Inhibition of DDAH in mouse MLE12 cells assessed as decrease in serum-stimulated cell proliferation at 50 to 100 uM preincubated for 2 hrs followed by fetal bovine serum addition measured 24 hrs post compound treatment by BrdU incorporation assay; assay type: cell-based
Chain of N(G),N(G)-dimethylarginine dimethylaminohydrolase 1 (Mus musculus) (Q9CWS0 whole entry): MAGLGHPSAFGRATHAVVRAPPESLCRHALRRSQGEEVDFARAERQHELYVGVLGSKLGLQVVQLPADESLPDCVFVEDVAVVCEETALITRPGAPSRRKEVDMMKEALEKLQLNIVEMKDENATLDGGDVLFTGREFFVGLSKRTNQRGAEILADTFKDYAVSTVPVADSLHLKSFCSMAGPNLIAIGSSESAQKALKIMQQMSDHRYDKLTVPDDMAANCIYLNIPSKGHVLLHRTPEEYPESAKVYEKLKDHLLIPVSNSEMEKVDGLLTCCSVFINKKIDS

[32] = target: T1, N(G),N(G)-dimethylarginine dimethylaminohydrolase 1; experiment: Inhibition of DDAH in lung fibroblasts isolated from late stage idiopathic pulmonary fibrosis patient assessed as reduction of TGF-beta-induced acid-soluble collagen levels at 50 uM after 24 hrs by sircol collagen assay
[33] = target: T1, N(G),N(G)-dimethylarginine dimethylaminohydrolase 1; conditions: A549, 50 to 100 uM
Description: Inhibition of DDAH in human A549 cells assessed as decrease in serum-stimulated cell proliferation at 50 to 100 uM preincubated for 2 hrs followed by fetal bovine serum addition measured 24 hrs post compound treatment by BrdU incorporation assay

[34] = target: T1, N(G),N(G)-dimethylarginine dimethylaminohydrolase 1; experiment: Inhibition of DDAH in human A549 cells assessed as increase in intracellular ADMA levels at 10 to 100 uM after 24 hrs by ELISA relative to vehicle-treated control; assay type: cell-based
[35] = target: T1, N(G),N(G)-dimethylarginine dimethylaminohydrolase 1; experiment: Inhibition of DDAH in human A549 cells assessed as decrease in serum-stimulated cell proliferation at 3 to 100 uM preincubated for 2 hrs followed by fetal bovine serum addition measured 24 hrs post compound treatment by BrdU incorporation assay; assay type: cell-based
[36] = Cytotoxicity against human A549 cells up to 300 uM by lactate dehydrogenase release assay; assay type: cell-based
[37] = target: T1, N(G),N(G)-dimethylarginine dimethylaminohydrolase 1; experiment: Inhibition of DDAH in human A549 cells assessed as downregulation of iNOS expression at 50 to 100 uM after 24 hrs by Western blot method; assay type: cell-based
[38] = target: T1, N(G),N(G)-dimethylarginine dimethylaminohydrolase 1; experiment: Inhibition of DDAH in lung fibroblasts isolated from late stage idiopathic pulmonary fibrosis patient assessed as reduction of TGF-beta-induced acid-soluble collagen levels at 100 uM after 24 hrs by sircol collagen assay
[39] = Cytotoxicity against mouse MLE12 cells up to 300 uM by lactate dehydrogenase release assay; assay type: cell-based
[40] = target: T1, N(G),N(G)-dimethylarginine dimethylaminohydrolase 1; experiment: Reversible inhibition of recombinant human DDAH1 expressed in Escherichia coli BL21 Star (DE3) using SMTC as substrate assessed as decrease in L-citrulline and methanethiol production at 1 to 100 times IC50 preincubated for 1 hr followed by 100 fold dilution by CPM-based fluorimetric assay
[41] = target: T1, N(G),N(G)-dimethylarginine dimethylaminohydrolase 1; experiment: Inhibition of DDAH in human A549 cells assessed as reduction in intracellular nitric oxide levels at 10 to 100 uM after 24 hrs by Griess assay; assay type: cell-based
[42] = target: T1, N(G),N(G)-dimethylarginine dimethylaminohydrolase 1; experiment: Inhibition of DDAH in human A549 cells assessed as reduction of A23187-induced apoptosis by measuring […] in mono and oligo nucleosome content at 20 to 100 uM after 24 hrs; assay type: cell-based
[43] = target: N(G),N(G)-dimethylarginine dimethylaminohydrolase 1 (Mus musculus) (UniProt Q9CWS0); experiment: Inhibition of DDAH in mouse MLE12 cells assessed as decrease in serum-stimulated cell proliferation at 3 to 100 uM preincubated for 2 hrs followed by fetal bovine serum addition measured 24 hrs post compound treatment by BrdU incorporation assay; assay type: cell-based
[44] = target: Transforming growth factor beta (Homo sapiens) (UniProt P01137+P61812+P10600); experiment: Inhibition of TGF-beta-induced acid-soluble collagen levels in lung fibroblasts isolated from late stage idiopathic pulmonary fibrosis patient at 20 uM after 24 hrs by sircol collagen assay; assay type: protein assay
Chain of Transforming growth factor beta (Homo sapiens) (P01137 whole entry, looked up): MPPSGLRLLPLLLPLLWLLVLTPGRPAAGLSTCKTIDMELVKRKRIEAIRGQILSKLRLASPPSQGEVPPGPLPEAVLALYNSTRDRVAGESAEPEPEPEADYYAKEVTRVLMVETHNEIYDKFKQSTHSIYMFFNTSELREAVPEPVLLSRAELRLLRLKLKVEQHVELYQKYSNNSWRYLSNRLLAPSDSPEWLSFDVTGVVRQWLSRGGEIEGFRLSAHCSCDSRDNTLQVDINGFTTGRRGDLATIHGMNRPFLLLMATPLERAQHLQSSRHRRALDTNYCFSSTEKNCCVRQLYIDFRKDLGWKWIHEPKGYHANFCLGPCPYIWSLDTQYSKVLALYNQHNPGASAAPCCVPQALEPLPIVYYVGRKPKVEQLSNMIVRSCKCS
Chain of Transforming growth factor beta (Homo sapiens) (P10600 whole entry, looked up): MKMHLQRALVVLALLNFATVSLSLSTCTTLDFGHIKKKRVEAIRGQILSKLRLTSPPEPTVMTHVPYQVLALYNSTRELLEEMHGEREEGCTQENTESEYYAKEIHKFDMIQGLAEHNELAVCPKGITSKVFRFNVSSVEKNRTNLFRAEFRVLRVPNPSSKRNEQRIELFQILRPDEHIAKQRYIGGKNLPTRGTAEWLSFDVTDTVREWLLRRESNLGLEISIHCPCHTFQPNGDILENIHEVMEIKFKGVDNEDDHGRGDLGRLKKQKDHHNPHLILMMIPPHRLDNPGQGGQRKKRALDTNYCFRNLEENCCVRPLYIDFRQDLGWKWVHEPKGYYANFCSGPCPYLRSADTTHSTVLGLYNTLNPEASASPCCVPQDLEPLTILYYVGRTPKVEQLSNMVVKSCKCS
Chain of Transforming growth factor beta (Homo sapiens) (P61812 whole entry, looked up): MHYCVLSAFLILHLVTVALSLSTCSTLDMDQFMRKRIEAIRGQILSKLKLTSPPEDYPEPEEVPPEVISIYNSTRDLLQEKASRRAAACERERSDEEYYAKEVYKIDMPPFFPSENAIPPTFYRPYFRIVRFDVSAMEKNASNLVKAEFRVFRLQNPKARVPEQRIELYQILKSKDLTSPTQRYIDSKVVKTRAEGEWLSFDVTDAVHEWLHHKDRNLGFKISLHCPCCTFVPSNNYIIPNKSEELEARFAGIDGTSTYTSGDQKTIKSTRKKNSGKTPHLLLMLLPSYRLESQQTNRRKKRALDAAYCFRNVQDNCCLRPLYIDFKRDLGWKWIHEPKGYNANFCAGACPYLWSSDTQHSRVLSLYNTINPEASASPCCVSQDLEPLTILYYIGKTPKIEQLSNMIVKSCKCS

## COc1ccc2[nH]c([S+]([O-])Cc3ncc(C)c(OC)c3C)nc2n1 (stereo not drawn)
[1]
  inhibition: Dose-dependent effect
[2]
  inhibition: Active
[3]
  inhibition: Active

## Cc1c(OCC(F)(F)F)ccnc1C[S+]([O-])c1nc2ccccc2[nH]1 (stereo not drawn)
[4]
  inhibition: Active
[5]
  inhibition: Active
[1]
  inhibition: Dose-dependent effect
[6]
  inhibition: Active
[2]
  inhibition: Active
[3]
  inhibition: Active

## PHENYLMERCURIC ACETATE
[7]
  IC50: < 0.78 µM

## O=c1c2ccccc2[se]n1-c1ccccc1
[7]
  inhibition: Active

## CC1=CC(=O)C=C(C)C1=NS(=O)(=O)c1ccccc1
[7]
  IC50: 9.03 µM

## CP(=O)(O)c1nc2ccccc2s1
[1]
  IC50: 9.9 µM

## COCCCOc1ccnc(C[S+]([O-])c2nc3ccccc3[nH]2)c1C (stereo not drawn)
[4]
  inhibition: Active
[5]
  inhibition: Active
[2]
  inhibition: Active
[3]
  inhibition: Active

## C/N=c1\nc(-c2ccccc2)n(-c2ccccc2)s1
[7]
  IC50: 13.2 µM

## COc1ccc2[nH]c([S@@+]([O-])Cc3ncc(C)c(OC)c3C)nc2c1
[8]
  inhibition: Active
[9]
  inhibition: Active
[10]
  inhibition: Active
[11]
  inhibition: Active
[12]
  inhibition: Active
[13]
  inhibition: 37%
[14]
  inhibition: Active
[15]
  inhibition: Active
[16]
  inhibition: Active
[17]
  fold change (FC): 2.5
[18]
  inhibition: Active
[4]
  inhibition: Active
[19]
  fold change (FC): 10
[20]
  inhibition: Active
[21]
  inhibition: Active
[22]
  inhibition: Active
[23]
  inhibition: Active
[5]
  inhibition: Active
[24]
  inhibition: Active
[25]
  fold change (FC): 4
[26]
  inhibition: Active
[27]
  inhibition: Active
[2]
  inhibition: Active
[28]
  fold change (FC): 5
[29]
  inhibition: Active
[3]
  inhibition: Active
[30]
  inhibition: Active

## CC1=CC(=O)C(Cl)=C(C)/C1=N/S(=O)(=O)c1ccc(C)cc1
[7]
  IC50: 5.5 µM

## N=C1Sc2ccccc2C2=NCCCN12
[7]
  inhibition: Dose-dependent effect
[13]
  inhibition: 84%
[5]
  inhibition: Active
[2]
  inhibition: Active

## COCCNC(=N)NCCC[C@H](N)C(=O)O
[13]
  inhibition: 68%
[31]
  inhibition: Active
[32]
  inhibition: Active
[33]
  inhibition: Active

## COc1ccc2[nH]c([S+]([O-])Cc3ncc(C)c(OC)c3C)nc2c1 (stereo not drawn) [OMEPRAZOLE]
[34]
  inhibition: Active
[35]
  inhibition: Active
[36]
  Activity: Non-Toxic
[37]
  inhibition: Active
[38]
  inhibition: Active
[39]
  Activity: Non-Toxic
[40]
  inhibition: Active
[41]
  inhibition: Active
[5]
  inhibition: Active
[42]
  inhibition: Active
[32]
  inhibition: Active
[43]
  inhibition: Active
[1]
  IC50: 20 to 85 µM
  inhibition: Dose-dependent effect
[2]
  inhibition: Active
[3]
  inhibition: Active

## COc1ccnc(C[S+]([O-])c2nc3cc(OC(F)F)ccc3[nH]2)c1OC (stereo not drawn) [PANTOPRAZOLE]
[1]
  IC50: 63 µM

## 4-[sequence] ACID
[7]
  inhibition: Active

## Cc1cccc(-c2nn(C(=S)Nc3ccccc3)cc2-c2ccnc3ccccc23)n1
[44]
  inhibition: Active
